Laboratory results published in patent US5288709A, “Erythromycin derivatives” (priority 1991, dated 1994).
Converted amounts (≈) assume the structure as drawn. Where two headings read alike, the source gives them in different places.

How the values were obtained:
Assay in all cases: In-vitro antimicrobial activity primary screen (agar dilution MIC)
Format in all cases: cell-based
[1] = system: Staphylococcus aureus CMX 553; conditions: Staphylococcus aureus, CMX553, 24 h, BHI agar, 20-24 h, read-out: MIC
In short: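 Agar dilution in Brain Heart Infusion agar with twelve successive compound dilutions; plates inoculated with 1:100 diluted cultures by replicator and incubated 20-24 h at 35-37 °C. MIC is the lowest concentration giving no growth, slight haze or sparse isolated colonies versus compound-free control; erythromycin A plate run as reference.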

[2] = system: Staphylococcus aureus 45; conditions: BHI agar, 20-24 h
In short: (§1)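 Agar dilution in BHI agar with successive compound dilutions; inoculum 1:100 (1:10 for slow growers such as Streptococcus), applied with a Steers replicator. Incubated 35 37° C for 20-24 hours. MIC is the lowest concentration giving no growth, slight haze or sparse colonies versus the drug-free control.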

[3] = system: Escherichia coli H560
In short: as §1

[4] = system: Pseudomonas aeruginosa BMH10; conditions: Pseudomonas aeruginosa, BMH10, 24 h, BHI agar, 20-24 h
In short: as §1

[5] = system: Streptococcus pyrogenes 2548 INDUC; conditions: BHI agar, 20-24 h
In short: as §1

[6] = system: Micrococcus luteus ATCC 4698; conditions: 20-24 h
In short: as §1

[7] = system: Micrococcus luteus ATCC 9341; conditions: 20-24 h
In short: as §1

[8] = system: Enterobacter aerogenes ATCC 13048; conditions: Klebsiella aerogenes
In short: as §1

[9] = system: Streptococcus pyrogenes EES61; conditions: BHI agar, 20-24 h
In short: as §1

[10] = system: Pseudomonas aeruginosa K799/WT
In short: as §1

[11] = system: Escherichia coli JUHL
In short: as §1

[12] = system: Escherichia coli DC-2
In short: as §1

[13] = system: Escherichia coli SS; conditions: BHI agar, 20-24 h
In short: as §1

[14] = system: Pseudomonas aeruginosa A5007
In short: as §1

[15] = system: Staphylococcus aureus 45 RAR2; conditions: Staphylococcus aureus, 45RAR2, 24 h, BHI agar, 20-24 h
In short: as §1

[16] = system: Staphylococcus aureus A5177; conditions: Staphylococcus aureus, A5177, 24 h
In short: as §1

[17] = system: Pseudomonas cepacia 2961; conditions: BHI agar, 20-24 h
In short: as §1

[18] = system: Acinetobacter SP CMX 669; conditions: Acinetobacter, SPCMX669, 24 h
In short: as §1

[19] = system: Staphylococcus aureus ATCC 6538P; conditions: ATCC6538P, BHI agar, 20-24 h
In short: as §1

[20] = system: Providencia stuartii CMX 640
In short: as §1

[21] = system: Pseudomonas aeruginosa K799/61; conditions: Pseudomonas aeruginosa K799/61, BHI agar, 20-24 h
In short: as §1

[22] = system: Staphylococcus aureus NCTC 10649; conditions: NCTC10649, BHI agar, 20-24 h, read-out: MIC
In short: as §1

[23] = system: Klebsiella pneumoniae ATCC 8045
In short: as §1

[24] = system: Streptococcus agalactiae CMX 508; conditions: 20-24 h
In short: as §1

[25] = system: Staphylococcus aureus 642A; conditions: BHI agar, 20-24 h, read-out: MIC
In short: as §1

[26] = system: Streptococcus bovis A5169; conditions: Streptococcus equinus, A5169, 24 h, BHI agar, 20-24 h
In short: as §1

[27] = system: Staphylococcus epidermidis 3519; conditions: BHI agar, 20-24 h
In short: as §1

[28] = system: Enterococcus faecium ATCC 8043
In short: as §1

[29] = Staphylococcus aureus, 45, 24 h
[30] = Micrococcus luteus, ATCC4698, 24 h, BHI agar
[31] = ATCC9341, BHI agar, read-out: MIC
[32] = Pseudomonas aeruginosa, K799/WT, 24 h
[33] = Pseudomonas aeruginosa, A5007, 24 h
[34] = Burkholderia cepacia, 2961, 24 h
[35] = Providencia stuartii, CMX640, 24 h
[36] = Klebsiella pneumoniae, ATCC8045, 24 h
[37] = CMX508, BHI agar, read-out: MIC
[38] = Staphylococcus epidermidis, 3519, 24 h
[39] = Enterococcus faecium, ATCC8043, 24 h
[40] = Micrococcus luteus, ATCC9341, 24 h, BHI agar
[41] = ATCC13048, Enterobacter aerogenes ATCC 13048, BHI agar, 20-24 h, read-out: MIC
[42] = Escherichia coli JUHL, BHI agar, 20-24 h, read-out: MIC
[43] = DC2, Escherichia coli DC-2, BHI agar, 20-24 h, read-out: MIC
[44] = ATCC8043, Enterococcus faecium ATCC 8043, BHI agar, 20-24 h, read-out: MIC

SMILES	MIC [1]	MIC [2, 29]	MIC ([3]; Escherichia coli, H560, 24 h)	MIC [4]	MIC [6, 30]	MIC [7, 31]	MIC ([9]; read-out: MIC)	MIC ([13]; read-out: MIC)	MIC [14, 33]	MIC [15]	MIC [16]	MIC [17, 34]	MIC ([19]; Staphylococcus aureus, 24 h)	MIC [20, 35]	MIC [22]	MIC [23, 36]	MIC [24, 37]	MIC [25]	MIC [26]	MIC ([5]; read-out: MIC)	also measured
CC[C@H]1OC(=O)[C@H](C)[C@@H](O[C@H]2C[C@@](C)(OC)[C@@H](O)[C@H](C)O2)[C@H](C)[C@@H](O[C@@H]2O[C@H](C)C[C@H](N(C)C)[C@H]2O)[C@](C)(OC)C[C@@H](C)[C@@H]2O[C@@]1(C)C(=O)[C@H]2C [Example 28B]	0.39 µg/mL (≈ 0.534 µM)	3.1 µg/mL (≈ 4.25 µM)	> 100 µg/mL	50 µg/mL (≈ 68.5 µM)	0.1 µg/mL (≈ 0.137 µM)	0.05 µg/mL (≈ 0.0685 µM)	0.02 µg/mL (≈ 0.0274 µM)	0.39 µg/mL (≈ 0.534 µM)	> 100 µg/mL	0.39 µg/mL (≈ 0.534 µM)	0.39 µg/mL (≈ 0.534 µM)	> 100 µg/mL	0.39 µg/mL (≈ 0.534 µM)	> 100 µg/mL	0.39 µg/mL (≈ 0.534 µM)	> 100 µg/mL	0.02 µg/mL (≈ 0.0274 µM)	0.39 µg/mL (≈ 0.534 µM)	0.05 µg/mL (≈ 0.0685 µM)	–	MIC ([5]; Streptococcus, 2548INDUC, 24 h): 3.1 µg/mL (≈ 4.25 µM); MIC ([8]; ATCC13048, 24 h): > 100 µg/mL; MIC [10, 32]: > 100 µg/mL; MIC ([11]; Escherichia coli, 24 h): > 100 µg/mL; MIC ([12]; Escherichia coli, DC2, 24 h): > 100 µg/mL; MIC ([18]; Acinetobacter SP CMX 669, BHI agar, 20-24 h): 12.5 µg/mL (≈ 17.1 µM); MIC ([21]; Pseudomonas aeruginosa, K799/61, 24 h): 3.1 µg/mL (≈ 4.25 µM); MIC [27, 38]: 0.39 µg/mL (≈ 0.534 µM); MIC [28, 39]: 0.1 µg/mL (≈ 0.137 µM)
CC[C@H]1OC(=O)[C@H](C)[C@@H](O[C@H]2C[C@@](C)(OC)[C@@H](OC(N)=O)[C@H](C)O2)[C@H](C)[C@@H](O[C@@H]2O[C@H](C)C[C@H](N(C)C)[C@H]2O)[C@](C)(O)C[C@@H](C)[C@@H]2O[C@@]1(C)C(=O)[C@H]2C [Example 31, (9S)-4"-O-Aminocarbonyl-9-deoxo-11,12-dideoxy-9,12-epoxy-11-oxoerythromycinA]	0.05 µg/mL (≈ 0.0659 µM)	–	–	50 µg/mL (≈ 65.9 µM)	–	–	0.02 µg/mL (≈ 0.0264 µM)	–	–	0.05 µg/mL (≈ 0.0659 µM)	50 µg/mL (≈ 65.9 µM)	–	–	–	0.05 µg/mL (≈ 0.0659 µM)	–	0.02 µg/mL (≈ 0.0264 µM)	0.05 µg/mL (≈ 0.0659 µM)	0.05 µg/mL (≈ 0.0659 µM)	0.78 µg/mL (≈ 1.03 µM)	MIC ([2]; read-out: MIC): 0.05 µg/mL (≈ 0.0659 µM); MIC ([3]; Escherichia coli, H560, 24 h, Escherichia coli H560, BHI agar, 20-24 h): 50 µg/mL (≈ 65.9 µM); MIC ([6]; ATCC4698, BHI agar, read-out: MIC): 0.05 µg/mL (≈ 0.0659 µM); MIC [7, 40]: 0.02 µg/mL (≈ 0.0264 µM); MIC [8, 41]: 100 µg/mL (≈ 132 µM); MIC ([10]; Pseudomonas aeruginosa K799/WT, BHI agar, 20-24 h, read-out: MIC): 100 µg/mL (≈ 132 µM); MIC [11, 42]: 100 µg/mL (≈ 132 µM); MIC [12, 43]: 100 µg/mL (≈ 132 µM); MIC ([13]; Escherichia coli, 24 h): 0.2 µg/mL (≈ 0.264 µM); MIC ([14]; Pseudomonas aeruginosa A5007, BHI agar, 20-24 h, read-out: MIC): > 100 µg/mL; MIC ([17]; Burkholderia cepacia, read-out: MIC): > 100 µg/mL; MIC ([19]; read-out: MIC): 0.05 µg/mL (≈ 0.0659 µM); MIC ([20]; CMX640, Providencia stuartii CMX 640, BHI agar, 20-24 h, read-out: MIC): > 100 µg/mL; MIC ([21]; read-out: MIC): 1.56 µg/mL (≈ 2.06 µM); MIC ([23]; ATCC8045, Klebsiella pneumoniae ATCC 8045, BHI agar, 20-24 h, read-out: MIC): 100 µg/mL (≈ 132 µM); MIC ([27]; read-out: MIC): 0.05 µg/mL (≈ 0.0659 µM); MIC [28, 44]: 0.05 µg/mL (≈ 0.0659 µM)
CC[C@H]1OC(=O)[C@H](C)[C@@H](O[C@H]2C[C@@](C)(OC)[C@H](N)[C@H](C)O2)[C@H](C)[C@@H](O[C@@H]2O[C@H](C)C[C@H](N(C)C)[C@H]2O)[C@](C)(O)C[C@@H](C)[C@@H]2O[C@@]1(C)[C@@H](N)[C@H]2C [Example 20, (4"R,9S,11S)-4",11-Diamino-9-deoxo-4",11,12-trideoxy-9,12-epoxyerythromycinA]	0.2 µg/mL (≈ 0.279 µM)	–	–	25 µg/mL (≈ 34.9 µM)	0.1 µg/mL (≈ 0.14 µM)	–	≤ 0.005 µg/mL	0.05 µg/mL (≈ 0.0698 µM)	> 100 µg/mL	0.39 µg/mL (≈ 0.545 µM)	–	> 100 µg/mL	0.2 µg/mL (≈ 0.279 µM)	> 100 µg/mL	0.39 µg/mL (≈ 0.545 µM)	1.56 µg/mL (≈ 2.18 µM)	0.02 µg/mL (≈ 0.0279 µM)	0.39 µg/mL (≈ 0.545 µM)	≤ 0.005 µg/mL	0.78 µg/mL (≈ 1.09 µM)	MIC ([2]; read-out: MIC): 0.2 µg/mL (≈ 0.279 µM); MIC ([3]; Escherichia coli H560, BHI agar, 20-24 h, read-out: MIC): 1.56 µg/mL (≈ 2.18 µM); MIC [7, 40]: 0.02 µg/mL (≈ 0.0279 µM); MIC [8, 41]: 12.5 µg/mL (≈ 17.5 µM); MIC ([10]; Pseudomonas aeruginosa, K799/WT, 24 h, Pseudomonas aeruginosa K799/WT, BHI agar, 20-24 h): 50 µg/mL (≈ 69.8 µM); MIC [11, 42]: 3.1 µg/mL (≈ 4.33 µM); MIC [12, 43]: 3.1 µg/mL (≈ 4.33 µM); MIC ([16]; Staphylococcus aureus A5177, BHI agar, 20-24 h): 0.78 µg/mL (≈ 1.09 µM); MIC [18]: 1.56 µg/mL (≈ 2.18 µM); MIC ([21]; read-out: MIC): 0.78 µg/mL (≈ 1.09 µM); MIC ([27]; read-out: MIC): 0.2 µg/mL (≈ 0.279 µM); MIC [28, 44]: 0.05 µg/mL (≈ 0.0698 µM)
CC[C@H]1OC(=O)[C@H](C)[C@@H](O[C@H]2C[C@@](C)(OC)[C@@H](O)[C@H](C)O2)[C@H](C)[C@@H](O[C@@H]2O[C@H](C)C[C@H](N(C)C)[C@H]2O)[C@](C)(OC)C[C@@H](C)C2=C(C)C(=O)[C@]1(C)O2 [Example 27, 9,10-Dihehydro-9-deoxo-11,12-dideoxy-9,12-epoxy-6-O-methyl-11-oxoerythromycin A]	0.39 µg/mL (≈ 0.536 µM)	3.1 µg/mL (≈ 4.26 µM)	100 µg/mL (≈ 137 µM)	100 µg/mL (≈ 137 µM)	0.2 µg/mL (≈ 0.275 µM)	0.05 µg/mL (≈ 0.0687 µM)	–	0.78 µg/mL (≈ 1.07 µM)	> 100 µg/mL	0.39 µg/mL (≈ 0.536 µM)	0.39 µg/mL (≈ 0.536 µM)	> 100 µg/mL	0.39 µg/mL (≈ 0.536 µM)	> 100 µg/mL	0.39 µg/mL (≈ 0.536 µM)	> 100 µg/mL	–	0.39 µg/mL (≈ 0.536 µM)	0.05 µg/mL (≈ 0.0687 µM)	100 µg/mL (≈ 137 µM)	MIC ([8]; ATCC13048, 24 h): > 100 µg/mL; MIC ([9]; Streptococcus, EES61, 24 h): 0.05 µg/mL (≈ 0.0687 µM); MIC [10, 32]: > 100 µg/mL; MIC ([11]; Escherichia coli, 24 h): > 100 µg/mL; MIC ([12]; Escherichia coli, DC2, 24 h): > 100 µg/mL; MIC ([24]; Streptococcus agalactiae, CMX508, 24 h, BHI agar): 0.05 µg/mL (≈ 0.0687 µM); MIC [27, 38]: 0.39 µg/mL (≈ 0.536 µM); MIC [28, 39]: 0.1 µg/mL (≈ 0.137 µM)
